# Measurements reported in patent US6734177B2, “Certain salts of discodermolide acid, pharmaceutical compositions containing them and their use in treating tumors” (Novartis AG, priority 2001, dated 2004).
# What was measured:
# Experiment in all cases: Hollow fiber in vivo tumor cell cultivation model in athymic nude mice
# Design in all cases: species or system human
# 1A9 ovarian carcinoma = system: 1A9 ovarian carcinoma
# From the text: (§1) Utilizing this model, one can measure the ability of test compounds to inhibit the growth of human tumor cells in hollow fibers growing subcutaneously (s.c.) in athymic nude mice. The histologic tumor types employed were MIP 101 colon carcinoma, HCT-116 colon carcinoma, 1A9PTX22 ovarian carcinoma, and 1A9 ovarian carcinoma.
# (§2) The HCT 116 human colon tumor cell line was obtained from the American Type Culture Collection, Rockville, Md. The MIP 101 human colon tumor cell line was obtained from Dr. Robert Kramer (Bristol Meyers Squibb) and was previously described (Niles R M, Wilhelm S A, Steele G D JR, Burke B, Christensen T, Dexter D, O'Brien M J, Thomas P, Zamcheck N. Isolation and characterization of an undifferentiated human colon carcinoma cell line (MIP-101). Cancer Invest. 1987;5(6):545-52.). The 1A9 and the 1A9PTX22 ovarian tumor cell lines were obtained from Dr. Toto Fojo, Medicine Branch, Division of Clinical Sciences, National Cancer Institute, National Institutes of Health, Bethesda, Md. 20892. The 1A9 is a clone of the ovarian carcinoma cell line, A2780 (Balachandran R, ter Haar E, Welsh M J, Grant S G, Day B W. The potent microtubule-stabilizing agent (+)-discodermolide induces apoptosis in human breast carcinoma cells-preliminary comparisons to paclitaxel. Anti-Cancer Drugs 1998; 9:67-76. [Errata: Anti-Cancer Drugs 1998: 9:369-370]). The 1A9PTX22 subline was isolated as an individual clone from the 1A9 cell line in a single step selection by exposure to 5 ng/mL paclitaxel in the presence of 5 μg/mL of verapamil. […] Resistance to paclitaxel was maintained after two years of culturing in drug-free media, and was attributed to the Ala^364→Thr mutation in β-tubulin that was found in the 1A9PTX22 cell line. All cell lines were propagated and expanded in RPMI 1640 medium containing 10% heat-inactivated FBS (Life Technologies, Grand Island, N.Y.) in a tissue culture incubator (37° C., controlled, humidified atmosphere containing 5% CO2). Cell expansions were performed in T75 tissue culture flasks (Costar®, Corning, N.Y.). For hollow fiber preparations, cells were harvested at 70-90% confluency using 0.25% Trypsin-EDTA (Life Technologies, Grand Island, N.Y.).
# (§3) PVDF hollow fibers (Spectrum, Gardena, Calif.) were soaked in 70% EtOH for 72 hours before use. After this step, all handling of fibers was done under a biological laminar flow hood using aseptic procedures. Individual fibers were flushed with 3 mL of ice-cold tissue culture media using a syringe equipped with a 20-gauge needle. Next, each fiber was filled with an appropriate cell suspension (1×10^6 cells/mL for the 1A9 and 1A9PTX22 cells, and 0.3×10^6 cells/mL for the HCT 116 and MIP 101 cells), and both ends of the fiber were sealed with a hot flat needle holder. The entire length of the fiber was then sealed into 1.5 cm microcapsules (further called “hollow fibers”), each containing approximately 15 μL of the appropriate cell suspension. After separation, individual hollow fibers were placed in 6 well plates (6 fibers in 5 mL media per well), and were incubated overnight at 37° C. in the tissue culture incubator.
# (§4) Outbred athymic (nu/nu) female mice (“Chrls:Athymic Nude-nu”, Charles River Laboratories, Wilmington, Mass.) were anesthetized with ip injections of Ketamine/Xylazine (150 mg/kg, and 12 mg/kg body weight, respectively). For the subcutaneous implantation an 11-gauge trocar containing one or two hollow fibers was inserted through an incision made with scissors at the nape of the neck of an animal, and fibers were released by retracting the trocar while depressing the plunger. This procedure was repeated until all four hollow fibers were implanted. One wound clip was used to close the skin incision. After the surgery each animal received a single, subcutaneous injection of 0.4 mg/kg butorphenol to relieve any potential pain. Animals recovered from the anesthesia on a heating pad, before returning to their cages. […]
# [1] = system: 1A9PTX22 ovarian carcinoma; settings: for Experiment #1 % T/C ± SEM / Experiment #2 % T/C ± SEM: 1A9PTX22 hollow fibers s.c., day 7, Paclitaxel 15 mg/kg i.v. daily for 5 days, Ex. 1 45 mg/kg i.v. once; for Average % T/C: 1A9PTX22 hollow fibers, average of experiments #1 and #2
# From the text: as §1, §2, §3, §4
# HCT-116 colon carcinoma = settings: for Experiment #1 % T/C ± SEM / Experiment #2 % T/C ± SEM: HCT 116 hollow fibers s.c., day 7, Paclitaxel 15 mg/kg i.v. daily for 5 days, Ex. 1 45 mg/kg i.v. once; for Average % T/C: HCT 116 hollow fibers, average of experiments #1 and #2
# From the text: as §1, §2, §3, §4
# MIP 101 colon carcinoma = settings: for Experiment #1 % T/C ± SEM / Experiment #2 % T/C ± SEM: MIP 101 hollow fibers s.c., day 7, Paclitaxel 15 mg/kg i.v. daily for 5 days, Ex. 1 45 mg/kg i.v. once; for Average % T/C: MIP 101 hollow fibers, average of experiments #1 and #2
# From the text: as §1, §2, §3, §4
# [2] = 1A9 hollow fibers s.c., day 7, Paclitaxel 15 mg/kg i.v. daily for 5 days, Ex. 1 45 mg/kg i.v. once
# [3] = 1A9 hollow fibers, average of experiments #1 and #2
Compound,"Experiment #2 % T/C ± SEM (1A9 ovarian carcinoma; 1A9 hollow fibers s.c., day 7, Ex. 1 45 mg/kg i.v. once) [%]",Experiment #1 % T/C ± SEM (1A9 ovarian carcinoma; [2]) [%],Average % T/C (1A9 ovarian carcinoma; [3]) [%],Experiment #1 % T/C ± SEM [1] [%],Experiment #2 % T/C ± SEM [1] [%],Average % T/C [1] [%],Experiment #1 % T/C ± SEM (HCT-116 colon carcinoma) [%],Experiment #2 % T/C ± SEM (HCT-116 colon carcinoma) [%],Average % T/C (HCT-116 colon carcinoma) [%],Experiment #1 % T/C ± SEM (MIP 101 colon carcinoma) [%],Experiment #2 % T/C ± SEM (MIP 101 colon carcinoma) [%],Average % T/C (MIP 101 colon carcinoma) [%],"Experiment #2 regression (Reg.) (1A9 ovarian carcinoma; 1A9 hollow fibers s.c., day 7, Paclitaxel 15 mg/kg i.v. daily for 5 days, regression = (1−Mean T/Mean T0)×100%) [% Reg.**]",Average regression (Reg.) (1A9 ovarian carcinoma; [3]) [% Reg.]
"C=C/C=C\[C@H](C)[C@H](OC(N)=O)[C@@H](C)[C@@H](O)[C@@H](C)C/C(C)=C\[C@H](C)[C@@H](O)[C@@H](C)/C=C\[C@@H](O)C[C@H](O)[C@H](C)[C@H](O)[C@@H](C)C(=O)[O-].[Na+] [Ex. 1, (2R,3S,4S,5S,7S,8Z,10S,11S,12S,13Z,16S,17S,18S,19S,20S,21Z)-19-[(aminocarbonyl)oxy]-3,5,7,11,17-pentahydroxy-2,4,10,12,14,16,18,20-octamethyl-8,13,21,23-tetracosatetraenoic acid, sodium salt]",23 ± 8,14 ± 4,19,6 ± 2,16 ± 7,11,15 ± 4,10 ± 3,13,50 ± 9,90 ± 9,70,,
CC(=O)O[C@H]1C(=O)[C@@]2(C)[C@H]([C@H](OC(=O)c3ccccc3)[C@]3(O)C[C@H](OC(=O)[C@H](O)[C@@H](NC(=O)c4ccccc4)c4ccccc4)C(C)=C1C3(C)C)[C@]1(OC(C)=O)CO[C@@H]1C[C@@H]2O [paclitaxel],,1 ± 3,,109 ± 16,84 ± 8,97,2 ± 1,1 ± 2,1,113 ± 10,112 ± 11,113,53,26
